How the values were obtained:
[1] = biological target: T1, Recombinant full-length human IDO1 (Homo sapiens, UniProt P14902); experiment: IDO1 enzymatic assay (NFK quantified by LCMS); assay type: biochemical; details: 2 nM enzyme, 5 μM L-tryptophan, pH6.5, 30 minutes pre-incubation at RT; mean values when measured multiple times; read-out: hIDO activity (IC50 in nM)
T1 construct: Recombinant full-length human IDO1 with a N-terminal hexahistidine tag; hexahistidine (His6) (N); made in house; host or cells: E. coli
Procedure, shortened: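 His-tagged human IDO1 (2 nM) in pH 6.5 phosphate buffer with ascorbate, methylene blue and catalase was preincubated with compound (10 μM–0.5 nM, 0.6% DMSO) for 30 min at RT. The reaction then ran with 5 μM L-Trp for 30 min. NFK was measured by LCMS against a d5-Trp standard, and IC50 was obtained by four-parameter fit.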

[2] = biological target: T2, Recombinant human TDO comprising amino acids 19-407 (Homo sapiens, UniProt P48775); experiment: TDO2 enzymatic assay (NFK quantified by LCMS); assay type: biochemical; details: 15 nM enzyme, 200 μM L-tryptophan, pH7, 30 minutes pre-incubation at RT; mean values when measured multiple times; read-out: hTDO activity (IC50 in nM)
T2 construct: Recombinant human TDO comprising amino acids 19-407 with a N-terminal hexahistidine tag; hexahistidine (His6) (N); made in house; host or cells: E. coli
Procedure, shortened: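 NFK formed over 30 min at RT from 200 μM L-tryptophan was measured by LCMS, normalized to d5-tryptophan, after compound (0.5 nM–10 μM, duplicates, 0.6% DMSO) was preincubated 30 min with 15 nM recombinant His-tagged TDO 19-407 in phosphate buffer pH 7. IC50 from four-parameter logistic fit; repeats averaged.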

T1 sequence (P14902 whole entry): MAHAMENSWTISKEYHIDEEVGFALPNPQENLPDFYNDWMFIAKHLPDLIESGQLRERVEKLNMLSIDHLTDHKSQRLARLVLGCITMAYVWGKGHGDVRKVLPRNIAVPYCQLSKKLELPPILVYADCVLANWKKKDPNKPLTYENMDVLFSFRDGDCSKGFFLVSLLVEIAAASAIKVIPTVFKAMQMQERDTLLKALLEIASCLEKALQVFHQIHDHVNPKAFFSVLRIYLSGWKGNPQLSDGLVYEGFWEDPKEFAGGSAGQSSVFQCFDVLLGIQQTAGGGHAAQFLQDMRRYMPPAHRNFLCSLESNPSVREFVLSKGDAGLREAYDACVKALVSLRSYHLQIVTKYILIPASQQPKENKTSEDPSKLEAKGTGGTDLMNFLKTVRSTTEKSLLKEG
T2 sequence (P48775 19-406 limits assumed): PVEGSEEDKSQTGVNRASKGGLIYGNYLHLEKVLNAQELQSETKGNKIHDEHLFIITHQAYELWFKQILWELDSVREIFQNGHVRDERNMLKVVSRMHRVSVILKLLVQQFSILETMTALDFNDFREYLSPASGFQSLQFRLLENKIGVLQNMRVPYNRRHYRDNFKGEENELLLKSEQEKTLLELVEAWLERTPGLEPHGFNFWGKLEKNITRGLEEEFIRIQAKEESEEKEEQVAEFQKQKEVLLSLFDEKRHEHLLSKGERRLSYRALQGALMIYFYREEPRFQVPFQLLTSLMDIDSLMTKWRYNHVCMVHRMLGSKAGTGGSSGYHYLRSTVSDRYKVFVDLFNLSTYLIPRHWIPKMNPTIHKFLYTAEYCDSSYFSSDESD

SMILES | IC50 [1] [nM] | IC50 [2] [nM]
OC(c1cn(-c2ccc(OCC3CCOCC3)cc2)nn1)c1c(C2CC2)sc2cncn12 (racemic) [Example 87, rac-(2-Cyclopropyl-imidazo[5,1-b]thiazol-3-yl)-{1-[4-(tetrahydro-pyran-4-ylmethoxy)-phenyl]-1H-[1,2,3]triazol-4-yl}-methanol] | 20.7 | > 10200
OC(c1cn(-c2ccc(OCC3COC3)cc2)nn1)c1c(C2CC2)sc2cncn12 (racemic) [Example 88, rac-(2-Cyclopropyl-imidazo[5,1-b]thiazol-3-yl)-{1-[4-(oxetan-3-ylmethoxy)-phenyl]-1H-[1,2,3]triazol-4-yl}-methanol] | 12.6 | > 10200
OC(c1cn(-c2ccc(OCCN3CCCCC3)cc2)nn1)c1c(C2CC2)sc2cncn12 (racemic) [Example 89, rac-(2-Cyclopropyl-imidazo[5,1-b]thiazol-3-yl)-{1-[4-(2-piperidin-1-yl-ethoxy)-phenyl]-1H-[1,2,3]triazol-4-yl}-methanol] | 204 | > 10200
OC(c1cn(-c2ccc(OCC3CCCO3)cc2)nn1)c1c(C2CC2)sc2cncn12 (racemic) [Example 90, rac-(2-Cyclopropyl-imidazo[5,1-b]thiazol-3-yl)-{1-[4-(tetrahydro-furan-2-ylmethoxy)-phenyl]-1H-[1,2,3]triazol-4-yl}-methanol] | 18.7 | > 10200
COCCOc1ccc(-n2cc(C(O)c3c(C4CC4)sc4cncn34)nn2)cc1 (racemic) [Example 91, rac-(2-Cyclopropyl-imidazo[5,1-b]thiazol-3-yl)-{1-[4-(2-methoxy-ethoxy)-phenyl]-1H-[1,2,3]triazol-4-yl}-methanol] | 12.9 | > 10200
COc1ccc(-n2cc(C(O)c3c(C4(F)CC4)sc4cncn34)nn2)cc1 (racemic) [Example 92, rac-[2-(1-Fluoro-cyclopropyl)-imidazo[5,1-b]thiazol-3-yl]-[1-(4-methoxy-phenyl)-1H-[1,2,3]triazol-4-yl]-methanol] | 32.7 | > 10200
CC(=O)Nc1ccc(-n2cc(C(O)c3c(C4CC4)sc4cncn34)nn2)cc1 (racemic) [Example 95, rac-N-(4-{4-[(2-Cyclopropyl-imidazo[5,1-b]thiazol-3-yl)-hydroxy-methyl]-[1,2,3]triazol-1-yl}-phenyl)-acetamide] | 18.3 | > 10200
Cc1sc2cncn2c1C(O)c1cnn(-c2ccccc2)c1 (racemic) [Example 96, rac-(2-Methyl-imidazo[5,1-b]thiazol-3-yl)-(1-phenyl-1H-pyrazol-4-yl)-methanol] | 163 | 2530
COc1ccc(-n2cc(C(O)c3c(C)sc4cncn34)cn2)cc1 (racemic) [Example 97, rac-[1-(4-Methoxy-phenyl)-1H-pyrazol-4-yl]-(2-methyl-imidazo[5,1-b]thiazol-3-yl)-methanol] | 121 | 1940
Cc1sc2cncn2c1C(O)c1cnn(-c2ccccc2)c1C (racemic) [Example 98, rac-(2-Methyl-imidazo[5,1-b]thiazol-3-yl)-(5-methyl-1-phenyl-1H-pyrazol-4-yl)-methanol] | 186 | 864
COc1ccc(-n2cc(C(O)c3c(C4CC4)sc4cncn34)cn2)cc1 (racemic) [Example 99, rac-(2-Cyclopropyl-imidazo[5,1-b]thiazol-3-yl)-[1-(4-methoxy-phenyl)-1H-pyrazol-4-yl]-methanol] | 31.8 | 3570
OC(c1cnn(-c2ccccc2)c1)c1c(C2CC2)sc2cncn12 (racemic) [Example 100, rac-(2-Cyclopropyl-imidazo[5,1-b]thiazol-3-yl)-(1-phenyl-1H-pyrazol-4-yl)-methanol] | 41.8 | 3350
Cc1c(C(O)c2c(C3CC3)sc3cncn23)nnn1-c1ccccc1 (racemic) [Example 101, rac-(2-Cyclopropyl-imidazo[5,1-b]thiazol-3-yl)-(5-methyl-1-phenyl-1H-[1,2,3]triazol-4-yl)-methanol] | 17 | 7150
COCCNC(=O)c1ccc(-n2cc(C(O)c3c(C4CC4)sc4cncn34)nn2)cc1 (racemic) [Example 102, rac-4-{4-[(2-Cyclopropyl-imidazo[5,1-b]thiazol-3-yl)-hydroxy-methyl]-[1,2,3]triazol-1-yl}-N-(2-methoxy-ethyl)-benzamide] | 23.2 | > 10200
O=C(c1ccc(-n2cc(C(O)c3c(C4CC4)sc4cncn34)nn2)cc1)N1CCOCC1 (racemic) [Example 103, rac-(4-{4-[(2-Cyclopropyl-imidazo[5,1-b]thiazol-3-yl)-hydroxy-methyl]-[1,2,3]triazol-1-yl}-phenyl)-morpholin-4-yl-methanone] | 78.1 | > 10200
O=C(Nc1ccc(-n2cc(C(O)c3c(C4CC4)sc4cncn34)nn2)cc1)N1CCOCC1 (racemic) [Example 104, rac-Morpholine-4-carboxylic acid (4-{4-[(2-cyclopropyl-imidazo[5,1-b]thiazol-3-yl)-hydroxy-methyl]-[1,2,3]triazol-1-yl}-phenyl)-amide] | 30.6 | > 10200
O=C(NC1CC1)c1ccc(-n2cc(C(O)c3c(C4CC4)sc4cncn34)nn2)cc1 (racemic) [Example 105, rac-N-Cyclopropyl-4-{4-[(2-cyclopropyl-imidazo[5,1-b]thiazol-3-yl)-hydroxy-methyl]-[1,2,3]triazol-1-yl}-benzamide] | 22.1 | > 10200
COCCCNC(=O)c1ccc(-n2cc(C(O)c3c(C4CC4)sc4cncn34)nn2)cc1 (racemic) [Example 106, rac-4-{4-[(2-Cyclopropyl-imidazo[5,1-b]thiazol-3-yl)-hydroxy-methyl]-[1,2,3]triazol-1-yl}-N-(3-methoxy-propyl)-benzamide] | 19.6 | > 10200
CCNC(=O)c1ccc(-n2cc(C(O)c3c(C4CC4)sc4cncn34)nn2)cc1 (racemic) [Example 107, rac-4-{4-[(2-Cyclopropyl-imidazo[5,1-b]thiazol-3-yl)-hydroxy-methyl]-[1,2,3]triazol-1-yl}-N-ethyl-benzamide] | 16.6 | > 10200
N#CCCNC(=O)c1ccc(-n2cc(C(O)c3c(C4CC4)sc4cncn34)nn2)cc1 (racemic) [Example 108, rac-N-(2-Cyano-ethyl)-4-{4-[(2-cyclopropyl-imidazo[5,1-b]thiazol-3-yl)-hydroxy-methyl]-[1,2,3]triazol-1-yl}-benzamide] | 10 | > 10200
NC(=O)Nc1ccc(-n2cc(C(O)c3c(C4CC4)sc4cncn34)nn2)cc1 (racemic) [Example 109, rac-(4-{4-[(2-Cyclopropyl-imidazo[5,1-b]thiazol-3-yl)-hydroxy-methyl]-[1,2,3]triazol-1-yl}-phenyl)-urea] | 24 | 7110
CCc1sc2cncn2c1C(O)c1cn(-c2ccc(NC(C)=O)cc2)nn1 (racemic) [Example 110, rac-N-(4-{4-[(2-Ethyl-imidazo[5,1-b]thiazol-3-yl)-hydroxy-methyl]-[1,2,3]triazol-1-yl}-phenyl)-acetamide] | 13.1 | 4290
CCc1sc2cncn2c1C(O)c1cn(-c2ccc(C(=O)NC)cc2)nn1 (racemic) [Example 111, rac-4-{4-[(2-Ethyl-imidazo[5,1-b]thiazol-3-yl)-hydroxy-methyl]-[1,2,3]triazol-1-yl}-N-methyl-benzamide] | 28.8 | > 10200
CCc1sc2cncn2c1C(O)c1cn(-c2ccc3[nH]c(=O)[nH]c3c2)nn1 (racemic) [Example 112, rac-5-{4-[(2-Ethyl-imidazo[5,1-b]thiazol-3-yl)-hydroxy-methyl]-[1,2,3]triazol-1-yl}-1,3-dihydro-benzoimidazol-2-one] | 45.6 | 6220
CCNC(=O)Nc1ccc(-n2cc(C(O)c3c(CC)sc4cncn34)nn2)cc1OC (racemic) [Example 113, rac-1-Ethyl-3-(4-{4-[(2-ethyl-imidazo[5,1-b]thiazol-3-yl)-hydroxy-methyl]-[1,2,3]triazol-1-yl}-2-methoxy-phenyl)-urea] | 14.3 | 7720
CCc1sc2cncn2c1C(O)c1cn(-c2ccc(C(=O)N(C)C)cc2)nn1 (racemic) [Example 114, rac-4-{4-[(2-Ethyl-imidazo[5,1-b]thiazol-3-yl)-hydroxy-methyl]-[1,2,3]triazol-1-yl}-N,N-dimethyl-benzamide] | 108 | > 10200
CCc1sc2cncn2c1C(O)c1cn(-c2ccc(C(=O)NCCCO)cc2)nn1 (racemic) [Example 115, rac-4-{4-[(2-Ethyl-imidazo[5,1-b]thiazol-3-yl)-hydroxy-methyl]-[1,2,3]triazol-1-yl}-N-(3-hydroxy-propyl)-benzamide] | 12.7 | > 10200
CCc1sc2cncn2c1C(O)c1cn(-c2ccc(C(N)=O)cc2)nn1 (racemic) [Example 116, rac-4-{4-[(2-Ethyl-imidazo[5,1-b]thiazol-3-yl)-hydroxy-methyl]-[1,2,3]triazol-1-yl}-benzamide] | 12.3 | 5210

— patent US20200405696A1, “INHIBITORS OF INDOLEAMINE 2,3-DIOXYGENASE AND/OR TRYPTOPHAN 2,3-DIOXYGENASE” (IDORSIA PHARMACEUTICALS LTD, priority 2018, published 2020)
